Results published in publication PMC6667648 (Frontiers in Microbiology, 2019).
≈ marks a conversion by molar mass, not a printed value. Where two headings read alike, the source gives them in different places.

Legend:
[1] = tested on: S. aureus ATCC 29213; assay: microbe, parasite or virus in culture; details: for MIC: Staphylococcus aureus
Source text: (§1) The development of resistance was confirmed if the microorganism started growing at continuously higher concentrations. […] Evaluations were done in duplicate.

[2] = tested on: S. aureus 6061; assay: microbe, parasite or virus in culture; format: cell-based, Staphylococcus aureus
Description: (§2) Strains were obtained from American Type Culture Collection (ATCC, Manassas, VA) or the clinical isolate collection at Trideum Biosciences (Frederick, MD, USA). Bioluminescence strains of P. aeruginosa 19660, transfected with the Xen5 luciferase gene, and S. aureus ATCC® 49525™ (Wright), transfected with the Xen36 luciferase gene, were obtained from Perkin Elmer (Hopkinton, MA).
(§3) A single colony was aseptically picked from an agar overlay and released in 25–30 mL of pre-warmed trypticase soy broth in a culture flask. Each culture was incubated overnight in a 37°C incubator. […] Pathogen growth was measured by absorbance at 600 nm. Four replicas were included for each test agent concentration. […]

[3] = tested on: MRSA 6381; assay: microbe, parasite or virus in culture; format: cell-based, Staphylococcus aureus
Description: as §2, §3

[4] = tested on: MRSA ATCC 33592; assay: microbe, parasite or virus in culture; format: cell-based, Staphylococcus aureus
Description: as §2, §3

[5] = tested on: S. aureus B-767; assay: microbe, parasite or virus in culture; format: cell-based, Staphylococcus aureus
Description: as §2, §3

[6] = tested on: MRSA 6313; assay: microbe, parasite or virus in culture; format: cell-based, Staphylococcus aureus
Description: as §2, §3

[7] = tested on: K. pneumonia ATCC 10031; assay: microbe, parasite or virus in culture; format: cell-based, Klebsiella pneumoniae
Description: as §2, §3

[8] = tested on: K. pneumonia 6066; assay: microbe, parasite or virus in culture; format: cell-based, Klebsiella pneumoniae
Description: as §2, §3

[9] = tested on: K. pneumonia 6069; assay: microbe, parasite or virus in culture; format: cell-based, Klebsiella pneumoniae
Description: as §2, §3

[10] = tested on: bioluminescent S. aureus 49525; assay: Bioluminescence time-kill assay; format: cell-based, Staphylococcus aureus; details: antibiotics after 30 min incubation, triplicates, two independent experiments
Description: as §2
(§4) Non-invasive real-time evaluation of viability, mammalian, and bacterial cells, was performed using bioluminescent human keratinocytes (HaCaT, AddexBio, San Diego, CA) and murine L929 fibroblast cells (ATCC, Manassas, VA). The bioluminescent variants were constructed by transfection with a luciferase gene (RediFect Red-Fluc-Puromycin, Catalog #CL596002) (Hamblin et al., [2003]). […] Each concentration was performed in triplicate. Bioluminescence imaging was performed at pre-specified times (0, 15, and 30 min and 1, 3, 5, 8, and 24 h) and compared to concurrently run vehicle-controls. The 96-well plate was positioned on the stage (12.5-cm field of view) within the in vivo Imaging System (IVIS) imaging system (Caliper Life Sciences, Inc., Hopkinton, MA, USA), with an open emission filter, binning of 4, and f-stop 1, and a 1-min exposure time. The resultant photons emitted from the live cells were quantified using Living Image® software (version 4.3, Caliper Life Sciences, Inc.). […]

[11] = tested on: bioluminescent P. aeruginosa 19660; assay: Bioluminescence time-kill assay; format: cell-based, Pseudomonas aeruginosa; details: antibiotics after 30 min incubation, triplicates, two independent experiments
Description: as §2, §4

[12] = tested on: P. aeruginosa ATCC 27853; assay: microbe, parasite or virus in culture; format: cell-based, Pseudomonas aeruginosa
Description: as §2, §3

[13] = tested on: P. aeruginosa 6186; assay: microbe, parasite or virus in culture; format: cell-based, Pseudomonas aeruginosa
Description: as §2, §3

[14] = tested on: P. aeruginosa ATCC 19660; assay: microbe, parasite or virus in culture; format: cell-based, Pseudomonas aeruginosa
Description: as §2, §3

[15] = tested on: E. cloacae 6053; assay: microbe, parasite or virus in culture; format: cell-based
Description: as §2, §3

[16] = tested on: E. cloacae 6054; assay: microbe, parasite or virus in culture; format: cell-based
Description: as §2, §3

[17] = tested on: S. epidermis ATCC 51625; assay: microbe, parasite or virus in culture; format: cell-based, S. epidermidis
Description: as §2, §3

[18] = tested on: A. baumannii 6043; assay: microbe, parasite or virus in culture; format: cell-based, Acinetobacter baumannii
Description: as §2, §3

[19] = tested on: A. baumannii 6838; assay: microbe, parasite or virus in culture; format: cell-based, Acinetobacter baumannii
Description: as §2, §3

[20] = tested on: A. baumannii ATCC 17978; assay: microbe, parasite or virus in culture; format: cell-based, Acinetobacter baumannii; details: Acinetobacter baumannii, ATCC17978, 24 h, read-out: Minimum Inhibitory Concentration (MIC)
Description: as §2, §3

[21] = tested on: P. aeruginosa ATCC 27853; assay: Antibiotic resistance profiling, 30 serial passages; format: cell-based, Pseudomonas aeruginosa; details: for MIC: Pseudomonas aeruginosa
Source text: as §1

[22] = Staphylococcus aureus, MRSA, 24 h, read-out: Minimum Inhibitory Concentration (MIC)

CCC[C@@H]1C[C@@H](C(=O)N[C@@H]([C@H]2O[C@H](SC)[C@H](O)[C@@H](O)[C@H]2O)[C@H](C)Cl)N(C)C1 [clindamycin]
Fold increase in MIC value, Passage #30 vs #0 ([1]; S. aureus ATCC 29213): 256 fold | MIC ([1]; ATCC29213, read-out: MIC on Passage #0 and Passage #1): 0.125 µg/mL (≈ 0.294 µM) | MIC ([1]; ATCC29213, read-out: MIC on Passage #30): 32 µg/mL (≈ 75.3 µM)

CN[C@H](CC(C)C)C(=O)N[C@H]1C(=O)N[C@@H](CC(N)=O)C(=O)N[C@H]2C(=O)N[C@H]3C(=O)N[C@H](C(=O)N[C@H](C(=O)O)c4cc(O)cc(O)c4-c4cc3ccc4O)[C@H](O)c3ccc(c(Cl)c3)Oc3cc2cc(c3O[C@@H]2O[C@H](CO)[C@@H](O)[C@H](O)[C@H]2O[C@H]2C[C@](C)(N)[C@H](O)[C@H](C)O2)Oc2ccc(cc2Cl)[C@H]1O [Vancomycin, vancomycin]
MIC ([2]; Staphylococcus aureus, 6061, 24 h, read-out: Minimum Inhibitory Concentration (MIC)): 2.1 µM (≈ 3.04 µg/mL) | MIC [3, 22]: 1.4 µM (≈ 2.03 µg/mL) | MIC ([4]; Staphylococcus aureus, 24 h, read-out: Minimum Inhibitory Concentration (MIC)): 1.4 µM (≈ 2.03 µg/mL) | MIC ([5]; Staphylococcus aureus, B767, 24 h, read-out: Minimum Inhibitory Concentration (MIC)): > 88.3 µM | MIC [6, 22]: 1.4 µM (≈ 2.03 µg/mL) | MIC ([7]; Klebsiella pneumoniae, ATCC10031, 24 h, read-out: Minimum Inhibitory Concentration (MIC)): > 88.3 µM | MIC ([8]; Klebsiella pneumoniae, 6066, 24 h, read-out: Minimum Inhibitory Concentration (MIC)): > 88.3 µM | MIC ([9]; Klebsiella pneumoniae, 6069, 24 h, read-out: Minimum Inhibitory Concentration (MIC)): > 88.3 µM | Bactericidal activity in time-kill assay [10]: no trace of antibacterial activity | Bactericidal activity in time-kill assay [11]: no trace of antibacterial activity | MIC ([12]; Pseudomonas aeruginosa, ATCC27853, 24 h, read-out: Minimum Inhibitory Concentration (MIC)): > 88.3 µM | MIC ([13]; Pseudomonas aeruginosa, 6186, 24 h, read-out: Minimum Inhibitory Concentration (MIC)): > 88.3 µM | MIC ([14]; Pseudomonas aeruginosa, ATCC19660, 24 h, read-out: Minimum Inhibitory Concentration (MIC)): > 88.3 µM | MIC ([15]; Enterobacter cloacae, 6053, 24 h, read-out: Minimum Inhibitory Concentration (MIC)): > 88.3 µM | MIC ([16]; Enterobacter cloacae, 6054, 24 h, read-out: Minimum Inhibitory Concentration (MIC)): > 88.3 µM | MIC ([17]; Staphylococcus epidermidis, ATCC51625, 24 h, read-out: Minimum Inhibitory Concentration (MIC)): 2.1 µM (≈ 3.04 µg/mL) | MIC ([18]; Acinetobacter baumannii, 6043, 24 h, read-out: Minimum Inhibitory Concentration (MIC)): > 88.3 µM | MIC ([19]; Acinetobacter baumannii, 6838, 24 h, read-out: Minimum Inhibitory Concentration (MIC)): > 88.3 µM | MIC [20]: > 88.3 µM

CNC(C)C1CCC(N)C(OC2C(N)CC(N)C(OC3OCC(C)(O)C(NC)C3O)C2O)O1 (centres unmarked) [gentamicin]
Fold increase in MIC value, Passage #30 vs #0 ([21]; P. aeruginosa ATCC 27853): 4,096 fold | MIC ([21]; ATCC27853, read-out: MIC during Passage #0 and Passage #1): 0.125 µg/mL (≈ 0.262 µM) | MIC ([21]; ATCC27853, read-out: MIC during Passage #30): 512 µg/mL (≈ 1070 µM)

CC[C@H](C)[C@H](NC(=O)[C@H](CCCCN)NC(=O)[C@H](CCC(=O)O)NC(=O)[C@H](CCCCN)NC(=O)[C@H](CO)NC(=O)[C@H](CCCCN)NC(=O)[C@H](CCCNC(=N)N)NC(=O)[C@H](Cc1ccccc1)NC(=O)[C@H](Cc1ccccc1)NC(=O)[C@H](CC(=O)O)NC(=O)CNC(=O)[C@H](CC(C)C)NC(=O)[C@@H](N)CC(C)C)C(=O)NCC(=O)N[C@@H](CCCCN)C(=O)N[C@@H](CCC(=O)O)C(=O)N[C@@H](Cc1ccccc1)C(=O)N[C@@H](CCCCN)C(=O)N[C@@H](CCCNC(=N)N)C(=O)N[C@H](C(=O)N[C@H](C(=O)N[C@@H](CCC(N)=O)C(=O)N[C@@H](CCCNC(=N)N)C(=O)N[C@H](C(=O)N[C@@H](CCCCN)C(=O)N[C@@H](CC(=O)O)C(=O)N[C@@H](Cc1ccccc1)C(=O)N[C@@H](CC(C)C)C(=O)N[C@@H](CCCNC(=N)N)C(=O)N[C@@H](CC(N)=O)C(=O)N[C@@H](CC(C)C)C(=O)N[C@H](C(=O)N1CCC[C@H]1C(=O)N[C@@H](CCCNC(=N)N)C(=O)N[C@H](C(=O)N[C@@H](CCC(=O)O)C(=O)N[C@@H](CO)C(=O)O)[C@@H](C)O)C(C)C)[C@@H](C)CC)C(C)C)[C@@H](C)CC [LL-37]
Minimum Inhibitory Concentration (MIC) ([2]; S. aureus 6061, 24-h incubation, mean of 3 replicates from 2 independent experiments): >28.5 [128] μM | Minimum Inhibitory Concentration (MIC) ([3]; MRSA 6381, 24-h incubation, mean of 3 replicates from 2 independent experiments): >28.5 [128] μM | Minimum Inhibitory Concentration (MIC) ([4]; MRSA ATCC 33592, 24-h incubation, mean of 3 replicates from 2 independent experiments): >28.5 [128] μM | Minimum Inhibitory Concentration (MIC) ([5]; S. aureus B-767, 24-h incubation, mean of 3 replicates from 2 independent experiments): >28.5 [128] μM | Minimum Inhibitory Concentration (MIC) ([6]; MRSA 6313, 24-h incubation, mean of 3 replicates from 2 independent experiments): >28.5 [128] μM | Minimum Inhibitory Concentration (MIC) ([7]; K. pneumonia ATCC 10031, 24-h incubation, mean of 3 replicates from 2 independent experiments): >28.5 [128] μM | Minimum Inhibitory Concentration (MIC) ([8]; K. pneumonia 6066, 24-h incubation, mean of 3 replicates from 2 independent experiments): >28.5 [128] μM | Minimum Inhibitory Concentration (MIC) ([9]; K. pneumonia 6069, 24-h incubation, mean of 3 replicates from 2 independent experiments): >28.5 [128] μM | Minimum Inhibitory Concentration (MIC) ([12]; P. aeruginosa ATCC 27853, 24-h incubation, mean of 3 replicates from 2 independent experiments): 28.5 [128] μM | Minimum Inhibitory Concentration (MIC) ([13]; P. aeruginosa 6186, 24-h incubation, mean of 3 replicates from 2 independent experiments): >28.5 [128] μM | Minimum Inhibitory Concentration (MIC) ([14]; P. aeruginosa ATCC 19660, 24-h incubation, mean of 3 replicates from 2 independent experiments): 28.5 [128] μM | Minimum Inhibitory Concentration (MIC) ([15]; E. cloacae 6053, 24-h incubation, mean of 3 replicates from 2 independent experiments): >28.5 [128] μM | Minimum Inhibitory Concentration (MIC) ([16]; E. cloacae 6054, 24-h incubation, mean of 3 replicates from 2 independent experiments): >28.5 [128] μM | Minimum Inhibitory Concentration (MIC) ([17]; S. epidermis ATCC 51625, 24-h incubation, mean of 3 replicates from 2 independent experiments): >28.5 [128] μM | Minimum Inhibitory Concentration (MIC) ([18]; A. baumannii 6043, 24-h incubation, mean of 3 replicates from 2 independent experiments): 14.2 [64] μM | Minimum Inhibitory Concentration (MIC) ([19]; A. baumannii 6838, 24-h incubation, mean of 3 replicates from 2 independent experiments): >28.5 [128] μM
